Experiments:
[1] = target: IKca channel (intermediate conductance potassium channel) (Homo sapiens, UniProt O15554); test: modified biotin switch; format: cell-based
[2] = target: cystathionine γ-lyase (CSE); test: CSE activity assay after pre-incubation with the NO donor S-nitroso-glutathione; format: biochemical

Sequence of IKca channel (intermediate conductance potassium channel) (O15554 whole entry): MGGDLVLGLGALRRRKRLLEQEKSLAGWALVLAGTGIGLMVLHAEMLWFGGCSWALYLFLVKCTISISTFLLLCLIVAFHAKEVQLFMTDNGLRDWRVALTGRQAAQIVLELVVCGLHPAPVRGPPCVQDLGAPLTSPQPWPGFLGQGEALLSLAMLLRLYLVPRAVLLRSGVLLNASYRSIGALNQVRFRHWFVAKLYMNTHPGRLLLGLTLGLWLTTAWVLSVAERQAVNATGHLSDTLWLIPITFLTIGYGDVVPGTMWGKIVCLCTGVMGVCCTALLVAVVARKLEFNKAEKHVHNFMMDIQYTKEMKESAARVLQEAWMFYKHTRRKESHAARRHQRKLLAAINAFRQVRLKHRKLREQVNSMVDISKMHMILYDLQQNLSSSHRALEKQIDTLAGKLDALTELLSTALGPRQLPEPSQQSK

Structure (SMILES): S [H2S]
- modified biotin switch (S-sulfhydration) assay, DTT-sensitive [1]: IKca channels from human aortic endothelial cells are sulfhydrated by NaHS in a DTT-sensitive fashion

Structure (SMILES): [N]=O [NO]
- IC50 [2]: ~100 nM
